We go through 1 molecule from patent US10927075B2, “Compositions and methods relating to the treatment of cancer, autoimmune disease, and neurodegenerative disease” (THE JACKSON LABORATORY, priority 2014, dated 2021).

The test system of one experiment is CCRF-SB cells. The experiment is described as follows: Viability of human B cell tumor cell line (Trypan Blue). In kind it is cell-based. How it is done:
(§1) FIG. 15A depicts an analysis of primary WT (AID+/+, closed markers) and AID−/− (open markers) murine B cell proliferation under activating conditions (αCD40 and IL-4 on days 0 and 2) and treated with the indicated doses of C-1523 for 4 days. Measurement of cell proliferation was determined by Trypan Blue staining and counting of viable, non-staining, cells via hemocytometer. Data are represented as the mean cell count for each condition. FIG. 15B depicts data from experiments in which primary B cells from A were stained with PI on day 4 and analyzed via flow cytometry for the percentage of cells that were non-viable, PI-positive (PI+). FIG. 15C depicts RT-PCR analysis of AID expression in cultured human cell lines. Water (H2O) and RNA from HEK293T cells were employed as negative controls for template and AID expression, respectively, and human activated B lymphocyte RNA (Stim B) was used as a positive control. GAPDH expression was included as a loading control. FIG. 15D depicts viability analysis of CCRF-SB, MEC-1, and MEC-2 cells after 6 days in culture with the indicated concentrations of C-1523, 150 μM DIDS, or DMSO vehicle. Viability was determined by Trypan Blue staining and counting via hemocytometer. FIG. 15E depicts representative immunofluorescence images of phosphorylated γH2AX (green) and nuclei (DAPI, blue) in primary murine splenic B cells from AID−/− (left) or AID+/+ (WT, right) mice. Cells were activated with αCD40 and IL-4 and treated with 100 nM C-1523 for 3 d. Scale bars, 10 μM. FIG. 15F depicts quantitation of foci observed in AID−/− and WT cells represented in FIG. 15E. Data were grouped into categories of cells with low (1-2 foci per nucleus), moderate (3-10 foci per nucleus), or high (>10 foci per nucleus) amounts of DNA damage. Error bars represent the SEM for three independent experiments.
(§2) FIG. 23 depicts graphs of viability analysis for human cancer cell lines treated with C-1523. The acute lymphoblastic leukemia (ALL) line CCRF-SB and the chronic lymphocytic leukemia lines MEC1 and MEC2 were treated with vehicle (DMSO) or 100 nM C-1523, and viability was measured by Tyrpan blue exclusion. All three lines express AID and are sensitive to C-1523 treatment.
(§3) The effect of C-1523 on the viability of AID-expressing human B cell tumor cell lines was further tested ([…]). CCRF-SB is an acute lymphoblastic leukemia cell line derived from a buffy coat preparation (Foley et al., 1968). MEC-1 and MEC-2 are cell lines derived from a patient with chronic lymphocytic leukemia at two different timepoints (before and after fludarabine and rituximab therapy) (Stacchini et al., 1999). C-1523 was tested in these cell lines over a dose range from 1 to 1000 nM, in log increments, and compared to 150 μM DIDS. […] Biphasic or hormetic responses for small molecules can reflect a number of biochemical/biological mechanisms (Calabrese, 2013).
(§4) Cell lines and cell culture. […] Immunofluorescence.

Experiment [1] has as its system MEC-1 cells. The description is as above. The format is cell-based. The procedure: as §1, §2, §3, §4
In another experiment the test system is MEC-2 cells. Described as above. In kind it is cell-based. The procedure:
as §1, §2, §3, §4

The subject of experiment [2] is MEC-1 cells. The experiment is described as follows: Micronuclei assay. In kind it is cell-based, human. Conditions: 100 nM for 3 days.
For a further experiment, the system named is mES cells. The experiment is described as follows: DR-GFP reporter assay (HR repair of endonuclease generated DSB). The format is cell-based, mouse. Particulars: 100 nM, compared to DMSO. A general note: Reporter assays use an easily measured gene product as a stand-in for the process of interest.
The subject of experiment [3] is primary splenic B-cells from AID−/− mice. Nature of the experiment: Expansion and viability of activated primary splenic B-cells. Particulars: 50-250 nM, four days, αCD40+IL-4 activation.
In experiment [4] the test system is AID−/− or p53−/− primary mouse B cells. Nature of the experiment: Micronuclei assay. Conditions: 100 nM, 3 days. In kind it is cell-based.
Experiment [5] has as its system primary, AID expressing B-cells. Nature of the experiment: Live cell imaging of nuclei fragmentation. In kind it is cell-based, mice. Particulars: 100 nM, individual cell imaged at 20 minute intervals. The procedure: FIG. 22 depicts live cell imaging of primary, AID expressing B-cells treated with 100 nM C-1523. Histone H2B-EGFP transgenic mice were used as a source of B-cells to facilitate imaging of chromatin. The top panel depicts an individual cell imaged at 20 minute intervals for 460 minutes. Images show chromosomal fragmentation commencing at 120 minutes. Data in the bottom panels depict quantification of live cell imaging depicting the fraction of cells that commence fragmentation at each time point (bottom left panel) and the cumulative fraction of fragmented nuclei (bottom right panel).
AID+/+ or AID−/− B-cells were cultured with 100 nM and cell cycle profiles were determined by propidium iodide staining and flow cyotmetry at intervals up to 96 hours. Non-activated (CD40) cells were used as a negative control; activated cells treated with the microtuble poison colcemid (ACT+colcemid) were used as a positive control. Nuclei fragmentation analysis of primary, AID expressing B-cells treated with 100 nM C-1523 was conducted (FIG. 22).

On to `CC(=O)Nc1ccc(/C=C/c2ccc(NC(=S)NC(C)C)cc2S(=O)(=O)O)c(S(=O)(=O)O)c1` [C-1523, (E)-5-acetamido-2-(4-(3-isopropylthioureido)-2-sulfonatostyryl)benzenesulfonate], for which the “sensitivity (viability)” value in the experiment with CCRF-SB cells (100 nM), in the experiment with MEC-1 cells [1] (100 nM) and in the experiment on MEC-2 cells (100 nM) was “sensitive” each time. In addition, the “viability reduction at highest dose” value with CCRF-SB cells (1000 nM) and in the experiment with MEC-1 cells [1] (1000 nM) was “less than that observed after treatment with 100 nM” throughout. The “concentration of greatest viability reduction” value in the experiment with CCRF-SB cells (1 to 1000 nM) and in the experiment on MEC-1 cells [1] (1 to 1000 nM) was 100 nM throughout. Also, the “viability response over dose range” value with CCRF-SB cells (1 to 1000 nM, 6 days) is given as “dose-dependent viability response”; in the experiment on MEC-1 cells [1] (1 to 1000 nM, 6 days), “dose-dependent viability response”; with MEC-2 cells (1 to 1000 nM, 6 days), “sensitive at all doses tested”. The “micronuclei in treated cells versus vehicle” value in the experiment with MEC-1 cells [2] is listed as “approximately 3.5 fold”. The “reduction of percentage of GFP-positive cells” value in the experiment with mES cells is “about 40%”. In experiment [3], the cellular expansion entry is given as “expanded identically to vehicle-treated controls”. In experiment [4], the fraction of micronuclei result is recorded as “no increase in the fraction of micronuclei”. The “time at which chromosomal fragmentation commences” value in experiment [5] was found to be 120 min.
